Results on 1 compound are retold here after patent US20100144873A1, “TREATMENT OF MYOCARDITIS USING FTS” (RAMOT AT TEL-AVIV UNIVERSITY LTD., priority 2007, published 2010).

For data set [1] the following is noted: human Phase I, doses up to 1800 mg/day; cited from earlier work.
Data set [2] relates to IgG anti-myosin antibodies. The data set can be described thus: IgG anti-myosin antibody levels in sera by ELISA. As to conditions: FTS 5 mg/kg i.p., p<0.05 vs control. It is filed as in vivo, Lewis rat. The method, then:
(§1) Porcine cardiac myosin (Sigma) was dissolved in PBS to a concentration of 0.4 μg/ul. Each rat was immunized by a single subcutaneous injection in both footpads on day 0 with an emulsion containing 1 mg of cardiac myosin with an equal volume of complete Freund's adjuvant containing 10.0 mg/mL of heat-killed Mycobacterium tuberculosis.
(§2) FTS was provided by Concordia Pharmaceuticals, Inc. (Ft. Lauderdale, Fla.). FTS was stored in chloroform, which was evaporated under a stream of nitrogen immediately before use. The powder was dissolved in absolute ethanol and diluted to the desired concentration in sterile PBS made basic with NaOH. Carrier solution (1000 μl) containing 1.35 mg of FTS (5 mg/kg) was injected intraperitoneally (i.p.) into each rat. Control solution was prepared at the same time, starting with PBS and absolute ethanol.
(§3) Two groups of rats were induced to develop EAM by immunization with cardiac myosin according to two protocols. In Protocol 1 (prevention regimen), FTS or PBS (control) was administered two (2) days prior to myosin immunization at a dose of 5 mg/kg (FTS pre-treatment before immunization). Thereafter, dosing was continued for a period of fourteen (14) days with administration of FTS or PBS occurring every other day. […]
(ELISA stands for enzyme-linked immunosorbent assay.)

For data set [3], the system named is lymphocytes from lymph nodes of rats with EAM. The data set is described as follows: Ex vivo proliferation assay with FTS (XTT, 96 h) on lymphocytes from EAM rats. It is filed as cell-based, rat. The method, then: FTS was provided by Concordia Pharmaceuticals, Inc. (Ft. Lauderdale, Fla.). FTS was stored in chloroform, which was evaporated under a stream of nitrogen immediately before use. The powder was dissolved in DMSO. This solution was diluted with RPMI/10% FCS to yield a 10 mM drug stock solution containing 10% DMSO. A portion of this solution was applied to the cells at a dilution of 1:100. Ex Vivo Proliferation Assay with FTS Five (5) rats with EAM were sacrificed on day fourteen (14). Lymphocytes were taken from lymph nodes, prepared as described and 1×10^5 cells/well seeded in 96 microwell plates. Lymphocytes were incubated in the presence of Myosin 2.5 μg/ml or Concavalin A in the presence of 0, 3.125, 6.25, 12.5, and 25 μM FTS. Lymphocyte proliferation was evaluated using XTT reagent after 96 h of incubation. To investigate the effect of FTS on the proliferative capacity of lymphocytes from EAM rats against myosin ex vivo, lymph nodes were excised from the EAM rodent models fourteen (14) days following myosin immunizations. Thereafter, lymphocytes were incubated in the presence of (A) myosin (2.5 μg/ml) and (B) Concavalin A (4 μg/ml) with varying concentrations of FTS. […] The proliferation rate was reduced in the presence of 50 μM FTS ex vivo by 48% (FIG. 1B). Thus, proliferation of lymphocytes against potential cardiac epitopes may be attenuated following FTS administration.

Data set [4] relates to Ras and its downstream signaling effectors in lymphocytes. The data set is described as follows: Western immunoblotting of total Ras, Erk, P-Erk, Akt, P-Akt in lymphocytes of treated rats. The data set is classed as in vivo, Lewis rat. The method, then:
(§4) Two groups of rats were induced to develop EAM by immunization with cardiac myosin according to two protocols. In Protocol 1 (prevention regimen), FTS or PBS (control) was administered two (2) days prior to myosin immunization at a dose of 5 mg/kg (FTS pre-treatment before immunization). Thereafter, dosing was continued for a period of fourteen (14) days with administration of FTS or PBS occurring every other day. In Protocol 2 (treatment regimen), FTS or PBS (control) was administered fourteen (14) days after porcine cardiac myosin immunization at a dose of 5 mg/kg (FTS post-EAM). Thereafter, dosing was continued for a period of seven (7) days with administration of FTS or PBS occurring every other day. Under both protocols, the Lewis rats were sacrificed at day 21 and hearts, lymph nodes and spleens were excised for histological and immunological analyses.
Lymphocytes were obtained from lymph nodes of FTS- and PBS-treated rats. The lymphocytes were homogenized in cold homogenization buffer containing protease inhibitors. Protein concentration was determined by the Bradford assay and samples containing 100 μg protein were used for determination of total Ras, total Erk, P-Erk, total Akt and P-Akt by Western immunoblotting using, respectively: pan-anti-Ras Ab (Ab03; Santa Cruz, Calif.), anti Erk Ab (Santa Cruz, Calif.), anti P-Erk Ab (Sigma), anti Akt Ab (Cell Signaling), and anti P-Akt Ab (Cell Signaling).
Enhanced chemiluminescence (ECL) and densitometric analysis were performed as detailed in R. Haklai, M. G. Weisz, G. Elad, et al., Biochemistry 37:1306-1314 (1998).
A general note: A western blot detects proteins with antibodies after separation by electrophoresis.

Data set [5] concerns lymphocytes from lymph nodes of FTS-treated Lewis rats. The data set can be described thus: Lymphocyte proliferation assay (XTT) on lymphocytes from FTS-treated myosin-immunized rats. It is filed as in vivo, Lewis rat. The method, then: as §1, §2, §3
Lymphocyte proliferation was evaluated using XTT reagent, according to standard procedures, after 96 h of incubation. […]
Background: Tetrazolium dyes change colour on reduction, which living cells bring about.

In data set [6] the test system is experimental autoimmune myocarditis (EAM). The data set can be described thus: Histopathology, H&E: severity of myocarditis (Dallas criteria) in EAM. It is filed as in vivo, Lewis rat. As to conditions: FTS 5 mg/kg i.p., mean±SE, control group 1.61±0.23, p<0.05. How it is done:
as §1, §2
Two groups of rats were induced to develop EAM by immunization with cardiac myosin according to two protocols. […]
Hearts were removed and fixed in 10% formalin, then embedded in paraffin. […] Every fifth section was examined for the presence of myocarditis by light microscopy, and was evaluated according to previously published criteria (the Dallas criteria) describing the severity of myocarditis as follows: severe (2)>50% of the heart involved; moderate (1)=10-50% involved; and minimal (0)=<10% involved, or normal. […]

The subject of a further data set is active GTP-bound Ras. The data set can be described thus: Ras-GTP determination by glutathione S-transferase-RBD pull-down assay in lymphocytes of treated rats. It is filed as in vivo, Lewis rat. How it is done: as §4
The lymphocytes were prepared as mentioned above. Samples containing 1.5 mg protein used for determination of levels of active GTP-bound Ras by the glutathione S-transferase-RBD pull-down assay followed by Western immunoblotting with pan-anti-Ras Ab as detailed in G. Elad-Sfadia, R. Haklai, E. Ballan et al., J. Biol. Chem. 277:37169-75 (2002).

For data set [7], the system named is myocardial dysfunction following myosin-induced EAM. The data set can be described thus: M-mode echocardiography after six weeks of FTS in EAM. The following applies: FTS 5 mg/kg from 2 days before myosin immunization, every other day for six weeks; vs PBS-treated. The data set is classed as in vivo, Lewis rat. How it is done:
as §1, §2
Another group of experiments was designed to study the effects of FTS on prevention of myocardial dysfunction following myosin-induced EAM. Under this regimen, FTS or PBS was given two (2) days before myosin immunization, then every other day for six (6) weeks (when compromised heart function is expected). After six (6) weeks, M-mode echocardiography was performed as described in George J, Biner S, Keren P, Barshack I, Goldberg I, Sherez J, Levitski A, Keren G, Roth A. Exp Mol. Pathol. 74(3):314-8 2003. […]

The test system of data set [8] is experimental autoimmune myocarditis (EAM). The data set is described as follows: Histopathology, Masson trichrome: scar area (collagen deposition) in EAM. The following applies: FTS 5 mg/kg i.p., vs control rats. It is filed as in vivo, Lewis rat. The method, then:
as §1, §2
Two groups of rats were induced to develop EAM by immunization with cardiac myosin according to two protocols. In Protocol 1 (prevention regimen), FTS or PBS (control) was administered two (2) days prior to myosin immunization at a dose of 5 mg/kg (FTS pre-treatment before immunization). […]
In order to evaluate the severity of scaring of the heart tissue, Masson trichrome staining was performed to assess collagen deposition in the three study groups. […] FIGS. 4B and C illustrate typical representations of the stained sections and quantitative analysis of the results.

Setting [9] is: Protocol 1 FTS-treated rats vs control.
Where [10] appears, read: Protocol 1 FTS-treated rats vs control animals.

On to `CC(C)=CCC/C(C)=C/CC/C(C)=C/CSc1ccccc1C(=O)O` [FTS, S-farnesylthiosalicylic acid], for which the dose-limiting toxicities result in [1] is “no dose-limiting toxicities”. Besides, the “IgG anti-myosin antibody levels” value in data set [2] (Protocol 1 (prevention)) was “significantly reduced levels of IgG anti-myosin antibody”. In addition, the “IgG anti-myosin antibody levels” value in data set [2] (Protocol 2 (treatment)) was “significantly reduced IgG anti-myosin antibody levels”. The “reduction of proliferation rate of Concavalin A-treated lymphocytes” value in [3] (Concavalin A 4 μg/ml, 50 μM FTS ex vivo) amounted to 48%. In addition, the “proliferation of Concavalin A-treated lymphocytes vs controls” value in data set [3] (Concavalin A 4 μg/ml, varying concentrations of FTS ex vivo) is given as “dose-dependent reduction in proliferation”. Moreover, in data set [3] (myosin 2.5 μg/ml, FTS 25 and 50 μM, ex vivo, vs controls, p<0.05), the “reduction of lymphocyte proliferation to myosin” value worked out at 79±7%. In [4] (setting [9]), the “phospho-Akt level in lymphocytes” value is “significant decrease”, the “phospho-Erk level in lymphocytes” value was “significant decrease”, the “total Akt level in lymphocytes” value was “not affected” and the “total Erk level in lymphocytes” value is recorded as “not affected”. Further, in data set [4] (setting [10]), the “total Ras level in lymphocytes” value is “downregulated”. For the same compound, the “proliferation in response to non-specific mitogen Concavalin A” value in data set [5] (FTS-treated rats vs control animals (data not shown)) was “not diminished”. In addition, the “decrease in lymphocyte proliferation in comparison with PBS” value in data set [5] (Protocol 1 (prevention): FTS 5 mg/kg i.p. from 2 days before myosin immunization, every other day for 14 days, p<0.05) is around 35%. Further, in data set [6] (Protocol 1 (prevention)), the “severity of myocarditis (myocarditis score)” value is given as 0.28±0.15 scale of 0-2 arbitrary units. In addition, the “severity of myocarditis (myocarditis score)” value in data set [6] (Protocol 2 (treatment)) is given as 0.33±0.24 scale of 0-2 arbitrary units. Moreover, the “Ras-GTP level in lymphocytes” value in the data set on active GTP-bound Ras (setting [10]) is “downregulated”. The “ratio of Ras-GTP to total Ras” value in the data set with active GTP-bound Ras (lymphocytes of Protocol 1 FTS-treated rats) is on record as “did not significantly alter”. For the same compound, in data set [7], the “fractional shortening (systolic parameter)” value is “improved” and the “left ventricular diastolic diameter” value is given as “improved”. In data set [8] (Protocol 1 (prevention)), the “collagen deposition (scar formation)” value is “reduced collagen deposition”. The “collagen deposition (scar formation)” value in data set [8] (Protocol 2 (treatment)) is “reduced collagen deposition”.
